In ChEMBL document CHEMBL5042477, “Potent Cyclic Peptide Inhibitors of FXIIa Discovered by mRNA Display with Genetic Code Reprogramming” (J Med Chem, 2021):
Where a SMILES comes first, the peptide text is derived from it. Bridges are numbered along the chain shown (N, C = ends). [ ]: non-standard residue; d: D form. Tyr(3-NO2) = N[C@@H](Cc1ccc(O)c([N+](=O)[O-])c1)C(=O)O; Phe(3-CF3) = N[C@@H](Cc1cccc(C(F)(F)F)c1)C(=O)O; Phe(4-CF3) = N[C@@H](Cc1ccc(C(F)(F)F)cc1)C(=O)O; Phe(3-CN) = N#Cc1cccc(C[C@H](N)C(=O)O)c1; Phe(3-OMe) = COc1cccc(C[C@H](N)C(=O)O)c1; Phe(2-CN) = N#Cc1ccccc1C[C@H](N)C(=O)O; Phe(3-F) = N[C@@H](Cc1cccc(F)c1)C(=O)O; Phe(2-F) = N[C@@H](Cc1ccccc1F)C(=O)O; hArg = N=C(N)NCCCC[C@H](N)C(=O)O; 3Pal = N[C@@H](Cc1cccnc1)C(=O)O; Agb = N=C(N)NCC[C@H](N)C(=O)O

Target: T1, Coagulation factor XII (Homo sapiens, UniProt P00748)
T1 sequence (P00748 whole entry): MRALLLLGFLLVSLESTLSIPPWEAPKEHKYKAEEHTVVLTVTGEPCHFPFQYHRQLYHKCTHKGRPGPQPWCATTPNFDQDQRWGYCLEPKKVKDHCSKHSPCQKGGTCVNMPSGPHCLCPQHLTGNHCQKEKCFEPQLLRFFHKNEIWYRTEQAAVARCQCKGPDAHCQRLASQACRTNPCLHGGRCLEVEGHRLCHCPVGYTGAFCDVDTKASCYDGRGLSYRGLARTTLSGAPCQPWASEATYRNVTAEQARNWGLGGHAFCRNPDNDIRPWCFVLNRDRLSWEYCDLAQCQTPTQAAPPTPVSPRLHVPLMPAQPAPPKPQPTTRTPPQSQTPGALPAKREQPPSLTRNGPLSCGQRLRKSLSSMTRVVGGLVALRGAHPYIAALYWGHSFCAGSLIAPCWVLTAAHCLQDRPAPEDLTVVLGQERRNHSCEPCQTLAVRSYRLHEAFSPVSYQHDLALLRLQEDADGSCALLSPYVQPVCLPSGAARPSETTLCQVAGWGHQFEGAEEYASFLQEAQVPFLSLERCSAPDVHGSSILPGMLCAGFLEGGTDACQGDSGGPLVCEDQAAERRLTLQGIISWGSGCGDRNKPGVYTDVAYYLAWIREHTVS
Assay: Inhibition of human factor 12a using H-D-Pro-Phe-Arg-p-nitroanilide as chromogenic substrate assessed as liberation of p-nitroaniline measured every 5 mins for 60 min by multimode plate reader analysis

Structure (SMILES)	IC50 [µM]
CC(C)C[C@@H]1NC(=O)[C@H](Cc2ccc(O)cc2)NC(=O)CSC[C@@H](C(N)=O)NC(=O)CNC(=O)CNC(=O)[C@H](CCCNC(=N)N)NC(=O)[C@H](CC(=O)O)NC(=O)[C@H](CCCCN)NC(=O)[C@@H]2CCCN2C(=O)[C@H](CCCNC(=N)N)NC(=O)[C@H](Cc2cccnc2)NC(=O)[C@H](CCCNC(=N)N)NC1=O ({CH2CO}-YLR[3Pal]RPKDRGGC-NH2; thioether N-12)	0.17
CC(C)C[C@@H]1NC(=O)[C@H](Cc2ccc(O)cc2)NC(=O)CSC[C@@H](C(N)=O)NC(=O)CNC(=O)[C@H](C)NC(=O)[C@H](CCC(N)=O)NC(=O)[C@H](CC(N)=O)NC(=O)[C@H]([C@@H](C)O)NC(=O)[C@@H]2CCCN2C(=O)[C@H](CCCCN)NC(=O)[C@H](CC(C)C)NC(=O)[C@H](CCCNC(=N)N)NC1=O ({CH2CO}-YLRLKPTNQAGC-NH2; thioether N-12)	21
CC(C)C[C@@H]1NC(=O)[C@H](Cc2ccc(O)cc2)NC(=O)CSC[C@@H](C(N)=O)NC(=O)CNC(=O)CNC(=O)[C@H](CCCNC(=N)N)NC(=O)[C@H](CC(=O)O)NC(=O)[C@H](CCCCN)NC(=O)[C@@H]2CCCN2C(=O)[C@H](CCCNC(=N)N)NC(=O)[C@H](Cc2cccc(C#N)c2)NC(=O)[C@H](CCCNC(=N)N)NC1=O ({CH2CO}-YLR[Phe(3-CN)]RPKDRGGC-NH2; thioether N-12)	0.16
CC(C)C[C@@H]1NC(=O)[C@H](Cc2ccc(O)cc2)NC(=O)CSC[C@@H](C(N)=O)NC(=O)CNC(=O)CNC(=O)[C@H](CCCNC(=N)N)NC(=O)[C@H](CC(=O)O)NC(=O)[C@H](CCCCN)NC(=O)[C@@H]2CCCN2C(=O)[C@H](CCCCNC(=N)N)NC(=O)[C@H](Cc2ccccc2)NC(=O)[C@H](CCCNC(=N)N)NC1=O ({CH2CO}-YLRF[hArg]PKDRGGC-NH2; thioether N-12)	0.47
CC(C)C[C@@H]1NC(=O)[C@H](Cc2ccc(O)cc2)NC(=O)CSC[C@@H](C(N)=O)NC(=O)CNC(=O)CNC(=O)[C@H](CCCNC(=N)N)NC(=O)[C@H](CC(=O)O)NC(=O)[C@H](CCCCN)NC(=O)[C@@H]2CCCN2C(=O)[C@H](CCCNC(=N)N)NC(=O)[C@H](Cc2ccccc2)NC(=O)[C@H](CCNC(=N)N)NC1=O ({CH2CO}-YL[Agb]FRPKDRGGC-NH2; thioether N-12)	0.587
CC(C)C[C@@H]1NC(=O)[C@H](Cc2ccccc2C#N)NC(=O)CSC[C@@H](C(N)=O)NC(=O)CNC(=O)CNC(=O)[C@H](CCCNC(=N)N)NC(=O)[C@H](CC(=O)O)NC(=O)[C@H](CCCCN)NC(=O)[C@@H]2CCCN2C(=O)[C@H](CCCNC(=N)N)NC(=O)[C@H](Cc2ccccc2)NC(=O)[C@H](CCCNC(=N)N)NC1=O ({CH2CO}-[Phe(2-CN)]LRFRPKDRGGC-NH2; thioether N-12)	14
CC(C)C[C@@H]1NC(=O)[C@H](C(C)C)NC(=O)CSC[C@@H](C(N)=O)NC(=O)CNC(=O)CNC(=O)[C@H](CCCNC(=N)N)NC(=O)[C@H](CC(=O)O)NC(=O)[C@H](CCCCN)NC(=O)[C@@H]2CCCN2C(=O)[C@H](CCCNC(=N)N)NC(=O)[C@H](Cc2ccccc2)NC(=O)[C@H](CCCNC(=N)N)NC1=O ({CH2CO}-VLRFRPKDRGGC-NH2; thioether N-12)	210
CC(C)C[C@@H]1NC(=O)[C@H](Cc2ccccc2F)NC(=O)CSC[C@@H](C(N)=O)NC(=O)CNC(=O)CNC(=O)[C@H](CCCNC(=N)N)NC(=O)[C@H](CC(=O)O)NC(=O)[C@H](CCCCN)NC(=O)[C@@H]2CCCN2C(=O)[C@H](CCCNC(=N)N)NC(=O)[C@H](Cc2ccccc2)NC(=O)[C@H](CCCNC(=N)N)NC1=O ({CH2CO}-[Phe(2-F)]LRFRPKDRGGC-NH2; thioether N-12)	0.35
CC(C)C[C@@H]1NC(=O)[C@H](Cc2ccc(O)cc2)NC(=O)CSC[C@@H](C(N)=O)NC(=O)CNC(=O)CNC(=O)[C@H](CCCNC(=N)N)NC(=O)[C@H](CC(=O)O)NC(=O)[C@H](CCCCN)NC(=O)[C@@H]2CCCN2C(=O)[C@H](CCCNC(=N)N)NC(=O)[C@H](Cc2cccc(C(F)(F)F)c2)NC(=O)[C@H](CCCNC(=N)N)NC1=O ({CH2CO}-YLR[Phe(3-CF3)]RPKDRGGC-NH2; thioether N-12)	0.093
CC(C)C[C@@H]1NC(=O)[C@H](Cc2ccc(O)cc2)NC(=O)CSC[C@@H](C(N)=O)NC(=O)[C@H](C)NC(=O)CNC(=O)[C@H](CCC(N)=O)NC(=O)[C@H](CC(N)=O)NC(=O)[C@H]([C@@H](C)O)NC(=O)[C@@H]2CCCN2C(=O)[C@H](CCCCN)NC(=O)[C@H](CC(C)C)NC(=O)[C@H](CCCNC(=N)N)NC1=O ({CH2CO}-YLRLKPTNQGAC-NH2; thioether N-12)	73
COc1ccc(C[C@@H]2NC(=O)CSC[C@@H](C(N)=O)NC(=O)CNC(=O)CNC(=O)[C@H](CCCNC(=N)N)NC(=O)[C@H](CC(=O)O)NC(=O)[C@H](CCCCN)NC(=O)[C@@H]3CCCN3C(=O)[C@H](CCCNC(=N)N)NC(=O)[C@H](Cc3ccccc3)NC(=O)[C@H](CCCNC(=N)N)NC(=O)[C@H](CC(C)C)NC2=O)cc1 ({CH2CO}-Y(Me)LRFRPKDRGGC-NH2; thioether N-12)	0.53
CC(C)C[C@@H]1NC(=O)[C@H](Cc2ccc(O)cc2)NC(=O)CSC[C@@H](C(N)=O)NC(=O)CNC(=O)CNC(=O)[C@H](CCC(N)=O)NC(=O)[C@H](CC(N)=O)NC(=O)[C@H]([C@@H](C)O)NC(=O)[C@@H]2CCCN2C(=O)[C@H](CCCCN)NC(=O)[C@H](C)NC(=O)[C@H](CCCNC(=N)N)NC1=O ({CH2CO}-YLRAKPTNQGGC-NH2; thioether N-12)	13
CC(C)C[C@@H]1NC(=O)[C@H](Cc2cccnc2)NC(=O)CSC[C@@H](C(N)=O)NC(=O)CNC(=O)CNC(=O)[C@H](CCCNC(=N)N)NC(=O)[C@H](CC(=O)O)NC(=O)[C@H](CCCCN)NC(=O)[C@@H]2CCCN2C(=O)[C@H](CCCNC(=N)N)NC(=O)[C@H](Cc2ccccc2)NC(=O)[C@H](CCCNC(=N)N)NC1=O ({CH2CO}-[3Pal]LRFRPKDRGGC-NH2; thioether N-12)	15
CC(C)C[C@@H]1NC(=O)[C@H](Cc2ccc(O)cc2)NC(=O)CSC[C@@H](C(N)=O)NC(=O)CNC(=O)CNC(=O)[C@H](CCCNC(=N)N)NC(=O)[C@H](CC(=O)O)NC(=O)[C@H](CCCCN)NC(=O)[C@@H]2CCCN2C(=O)[C@H](CCCNC(=N)N)NC(=O)[C@H](Cc2ccccc2F)NC(=O)[C@H](CCCNC(=N)N)NC1=O ({CH2CO}-YLR[Phe(2-F)]RPKDRGGC-NH2; thioether N-12)	0.053
COc1cccc(C[C@@H]2NC(=O)CSC[C@@H](C(N)=O)NC(=O)CNC(=O)CNC(=O)[C@H](CCCNC(=N)N)NC(=O)[C@H](CC(=O)O)NC(=O)[C@H](CCCCN)NC(=O)[C@@H]3CCCN3C(=O)[C@H](CCCNC(=N)N)NC(=O)[C@H](Cc3ccccc3)NC(=O)[C@H](CCCNC(=N)N)NC(=O)[C@H](CC(C)C)NC2=O)c1 ({CH2CO}-[Phe(3-OMe)]LRFRPKDRGGC-NH2; thioether N-12)	0.64
CC(C)C[C@@H]1NC(=O)[C@H](C)NC(=O)CSC[C@@H](C(N)=O)NC(=O)CNC(=O)CNC(=O)[C@H](CCCNC(=N)N)NC(=O)[C@H](CC(=O)O)NC(=O)[C@H](CCCCN)NC(=O)[C@@H]2CCCN2C(=O)[C@H](CCCNC(=N)N)NC(=O)[C@H](Cc2ccccc2)NC(=O)[C@H](CCCNC(=N)N)NC1=O ({CH2CO}-ALRFRPKDRGGC-NH2; thioether N-12)	500
CC(C)C[C@@H]1NC(=O)[C@H](Cc2cccc(F)c2)NC(=O)CSC[C@@H](C(N)=O)NC(=O)CNC(=O)CNC(=O)[C@H](CCCNC(=N)N)NC(=O)[C@H](CC(=O)O)NC(=O)[C@H](CCCCN)NC(=O)[C@@H]2CCCN2C(=O)[C@H](CCCNC(=N)N)NC(=O)[C@H](Cc2ccccc2)NC(=O)[C@H](CCCNC(=N)N)NC1=O ({CH2CO}-[Phe(3-F)]LRFRPKDRGGC-NH2; thioether N-12)	0.65
CC(C)C[C@@H]1NC(=O)[C@H](Cc2ccc(O)cc2)NC(=O)CSC[C@@H](C(N)=O)NC(=O)CNC(=O)CNC(=O)[C@H](CCCNC(=N)N)NC(=O)[C@H](CC(=O)O)NC(=O)[C@H](CCCCN)NC(=O)[C@@H]2CCCN2C(=O)[C@H](C)NC(=O)[C@H](Cc2ccccc2)NC(=O)[C@H](CCCNC(=N)N)NC1=O ({CH2CO}-YLRFAPKDRGGC-NH2; thioether N-12)	79
CC(C)C[C@@H]1NC(=O)[C@H](Cc2ccc(C(F)(F)F)cc2)NC(=O)CSC[C@@H](C(N)=O)NC(=O)CNC(=O)CNC(=O)[C@H](CCCNC(=N)N)NC(=O)[C@H](CC(=O)O)NC(=O)[C@H](CCCCN)NC(=O)[C@@H]2CCCN2C(=O)[C@H](CCCNC(=N)N)NC(=O)[C@H](Cc2ccccc2)NC(=O)[C@H](CCCNC(=N)N)NC1=O ({CH2CO}-[Phe(4-CF3)]LRFRPKDRGGC-NH2; thioether N-12)	74
CC(C)C[C@@H]1NC(=O)[C@H](Cc2ccc(O)c([N+](=O)[O-])c2)NC(=O)CSC[C@@H](C(N)=O)NC(=O)CNC(=O)CNC(=O)[C@H](CCCNC(=N)N)NC(=O)[C@H](CC(=O)O)NC(=O)[C@H](CCCCN)NC(=O)[C@@H]2CCCN2C(=O)[C@H](CCCNC(=N)N)NC(=O)[C@H](Cc2ccccc2)NC(=O)[C@H](CCCNC(=N)N)NC1=O ({CH2CO}-[Tyr(3-NO2)]LRFRPKDRGGC-NH2; thioether N-12)	90
CC(C)C[C@@H]1NC(=O)[C@H](Cc2ccc(O)cc2)NC(=O)CSC[C@@H](C(N)=O)NC(=O)CNC(=O)CNC(=O)[C@H](CCCNC(=N)N)NC(=O)[C@H](CC(=O)O)NC(=O)[C@H](CCCCN)NC(=O)[C@@H]2CCCN2C(=O)[C@H](CCNC(=N)N)NC(=O)[C@H](Cc2ccccc2)NC(=O)[C@H](CCCNC(=N)N)NC1=O ({CH2CO}-YLRF[Agb]PKDRGGC-NH2; thioether N-12)	3.3
